Assay results from patent US7507749B2, “Antitumor agents” (priority 2001, dated 2009).
“And” between values parts separate entries of the source, which are not always exact repeats. Equal entries are not always repeated. Where two headings read alike, the source gives them in different places.

Tests used:
[1] = test system: pancreatic ductal adenocarcinoma 03; details: historic; cited from earlier work
[2] = test system: B16 melanoma; details: historic, B16 melanoma implanted subcutaneously (SC); cited from earlier work
[3] = test system: pancreatic ductal adenocarcinoma 03
Text: Pancreatic ductal adenocarcinoma-03, B16-melanoma, mammary adenocarcinoma-16/C/Adr, mammary adenocarcinoma-17/Adr, colon adenocarcinoma-26, and mammary adenocarcinoma-16/C were used in the studies.
(§1) Tumors were maintained in the mouse strain of origin C57B1/6 (for Panc03, B16), Balb/c (for Colon 26) and C3H (for the mammary tumors). Tumors were transplanted into the appropriate F1 hybrid (BDF1=C57B1/6 female X DBA/2 male) or the strain of origin for the chemotherapy trials. Individual mouse body weights for each experiment were within 5 grams, and all mice were over 17 grams at the start of therapy. The mice were supplied food and water ad libitum.
(§2) Animals were pooled, implanted subcutaneously with 30 to 60 mg tumor fragments by a 12 gauge trocar on day 0, and again pooled before unselective distribution to the various treatment and control groups. For early stage treatment, chemotherapy was started within 1 to 3 days after tumor implantation while the number of cells was relatively small (10^7 to 10^8 cells). For upstaged or advanced staged trials, the tumors were allowed to grow for five or more days before treatment was started. Tumors were measured with a caliper twice weekly. […] Tumor weights are estimated from two-dimensional measurements:
(§3) Tumor weight (in mg)=(a×b^2)/2, where a and b are the tumor length and width in (mm), respectively.
(§4) The following quantitative endpoints were used to assess antitumor activity: • a) Tumor growth delay (T-C value), where T is the median time (in days) required for the treatment group tumors to reach a predetermined size (e.g., 1000 mg), and C is the median time (in days) for the control group tumors to reach the same size. Tumor-free survivors are excluded from these calculations (cures are tabulated separately). This value is an important criterion of antitumor effectiveness because it allows the quantification of tumor cell kill. • b) Calculation of tumor cell kill for subcutaneously (SC) growing tumors, the log10 cell kill was calculated from the following formula:
(§5) The conversion of the T-C values to log10 cell kill is possible because the Td of tumors regrowing post treatment (Rx) approximates the Td values of the tumors in untreated control mice.
In selected cases, both for historic in vivo evaluation data as well as data presented here, it is of value to compare log kill numbers from trials of markedly different testing schedules. […] It should be noted that an activity rating of +++ to ++++ is needed to effect partial regression (PR) or complete regression (CR) of 100 to 300 mg size masses of most transplanted solid tumors of mice. Thus, an activity rating of + or ++ would not be scored as active by usual clinical criteria. A PR is a reduction in tumor mass to less than 50% of pretreatment size. A CR is a reduction in tumor mass to below palpable size (i.e., reduction to zero detectable mass).
(§6) The T/C value in percent is an indication of antitumor effectiveness: A T/C=0% means no tumor growth. […] A T/C value <10% is considered to indicate highly significant antitumor activity, and is the level used by NCI to justify a clinical trial if toxicity, formulation, and certain other requirements are met (termed DN-2 level activity).
Female BDFl mice (obtained from NCI-Raleigh) (date of birth (hereinafter D.O.B.) Mar. 27, 2000; date of arrival (hereinafter D.O.A.) Apr. 9, 2000) were implanted (tumor implant date (hereinafter D.O.T.) Mar. 17, 2000) with pancreatic ductal adenocarcinoma 03 tumor, divided into treatment and control groups.

[4] = test system: colon carcinoma 26
Protocol: In this trial the R-enantiomers of XK-469, compound 22c, and compound 22b were compared against advanced staged colon carcinoma 26 in female Balb/c mice. […] Cage #2 was 22b at 400 mg/kg and Cage #4 was 22c at 400 mg/kg.
The XK469-R, 22b, and 22c compound doses were all prepared the same, using 3% ethanol, 1% POE-80, and 0.5% sodium bicarbonate. The injection volume was 0.2 mu/mouse IV. […] The mice were Balb/c female mice: DOB Feb. 12, 2001; DOA Mar. 27, 2001; DOT Sep. 8, 2001, with an average body weight of 24.7 grams at the start of Rx administration. The tumor was Colon Carcinoma-26 passage 141; date of implant Sep. 8, 2001, and implanted at 30 to 60 mg fragments bilaterally SC. All tumors were 63 to 171 mg on day 6, the day of first Rx.

[5] = test system: mammary adenocarcinoma-16/C/Adr; test: Test C: evaluation against early stage mammary adenocarcinoma-16/C/Adr; assay type: in vivo
Text: Early stage mammary adenocarcinoma-16/C/Adr is a p-glycoprotein negative multidrug resistant tumor. C3H female mice were obtained from NCI-Kingston-CRL (D.O.B. Apr. 3, 2000; D.O.A. May 16, 2000). […] The control animals (Cage #1) received no treatment.

[6] = test system: B16 melanoma
Text: as §1, §2, §3, §4, §5
It should be noted that an activity rating of +++ to ++++ is needed to effect partial regression (PR) or complete regression (CR) of 100 to 300 mg size masses of most transplanted solid tumors of mice. Thus, an activity rating of + or ++ would not be scored as active by usual clinical criteria. A PR is a reduction in tumor mass to less than 50% of pretreatment size. A CR is a reduction in tumor mass to below palpable size (i.e., reduction to zero detectable mass).
as §6
The mice were divided into a control group and three experimental groups. The control group (Cage #1) received no treatment.
A −20% body weight loss is considered excessively toxic by N.C.I. standards.

[7] = Cage 7, IV daily days 3-9, 7 inj, total 336 mg/kg
[8] = Cg 3, IV 50 mg/kg/inj days 6,8,10,13,15, total 250 mg/kg
[9] = Cage 2, IV 42 mg/kg twice daily days 1-3 and 11-13, total 504 mg/kg
[10] = Cage 3, IV 27 mg/kg twice daily days 1-3 and 11-13, total 324 mg/kg
[11] = Cage 2, IV 40 mg/kg/inj days 1-4, 8 inj, total 320 mg/kg
[12] = Cage 3, IV 50 mg/kg/inj daily days 1-5, total 250 mg/kg
[13] = Cage 4, IV 30 mg/kg/inj daily days 1-6, total 180 mg/kg

## O=c1[nH]cc(F)c(=O)[nH]1 [Compound 5-FU, 5-FU]
[1]
  activity rating (sensitivity of the tumor to standard agents): + (0.7-1.2)

## O=NN(CCCl)C(=O)NCCCl [BCNU]
[2]
  activity rating (responsiveness of the tumor to standard agents): ++++ (>2.8)

## CC(Oc1ccc(Oc2ccc3ccc(Cl)cc3n2)cc1)C(=O)O (racemic) [Compound 22b, 2-[4-(7-chloroquinolin-2-yloxy)phenoxy]propanoic acid]
[3]; [7]
  % T/C mass: 0%
  Activity Rating: +++ (2.0-2.8)
  Drug Deaths: 0/5
  Growth Delay In Days: 17.5 days
  Log Kill: 2.6
  Median Tumor Mass on Day 14 (Range): 0 (0-126) mg
  Tumor Free day-37: 0/5
[3]; mouse, in vivo
  % Body Wt Loss at Nadir: −8.9%
  Day of Nadir: 11 days
[4]; Cage 2, 400 mg/kg, omitted from Table 8
  Toxicity of dose group: toxic
[4]; [8]
  Activity Rating: ++ (1.3-1.9)
  CR's: 1/6
  Log Kill: 1.4
[5]; [9]
  % Body Wt Loss at Nadir: −15%
  % T/C mass: 0%
  Activity Rating: +++ (2.0-2.8)
  Day of Nadir: 7 days
  Day of full recovery of body weight: 12 days
  Drug Deaths: 0/6
  Growth Delay: 8.0 days
  Log Kill: 2.0
  Median Tumor Mass on Day 11 (Range): 0 (0-308) mg
  Tumor Free day-18: 0/6
[5]; Cage 2, IV 42 mg/kg twice daily, lasting about ten minutes post injection
  Neuromuscular toxicity: modest neuromuscular gait disturbance
[5]; Cage 3, IV 27 mg/kg twice daily
  Neuromuscular toxicity: insignificant gait disturbance
[5]; [10]
  % Body Wt Loss at Nadir: −1.1%
  % T/C mass: 53%
  Activity Rating: inactive
  Day of Nadir: 7 days
  Day of full recovery of body weight: 8 days
  Drug Deaths: 0/6
  Growth Delay: 2.25 days
  Log Kill: 0.6
  Median Tumor Mass on Day 11 (Range): 741 (516-1199) mg
  Tumor Free day-18: 0/6
[6]; [11]
  % T/C mass: 0%
  Cause of death: marrow toxicity
  Drug Deaths: 1/5
  Growth Delay: 12.5 days
  Log Kill: 3.8
  Median Tumor Mass on Day 9 (Range): 0 (all zeros) mg
  Tumor Free day-24: 0.5
[6]; Cage 2, IV 40 mg/kg/inj days 1-4, 8 inj, total 320 mg/kg, listed as 22b (racemic)
  Activity Rating: toxic
[6]; [12]
  % T/C mass: 0%
  Activity Rating: +++ (2.0-2.8)
  Drug Deaths: 0/5
  Growth Delay: 8.5 days
  Log Kill: 2.6
  Median Tumor Mass on Day 9 (Range): 0 (all zeros) mg
  Tumor Free day-24: 0/5
[6]; [13]
  % T/C mass: 15.6%
  Activity Rating: ++ (1.3-1.9)
  Drug Deaths: 0/5
  Growth Delay: 6.0 days
  Log Kill: 1.8
  Median Tumor Mass on Day 9 (Range): 221 (63-334) mg
  Tumor Free day-24: 0/5
[6]; mouse, in vivo
  Day of Nadir: 8 days
  Day of full recovery of body weight: 11 days and 9 days
  Duration of neuromuscular toxicity post injection: over 20 minutes
  Neuromuscular toxicity (slowing of nerve conduction): substantial post injection neuromuscular toxicity and mild

## CC[C@@]1(O)C(=O)OCc2c1cc1n(c2=O)Cc2cc3ccccc3nc2-1 [camptothecin]
[2]
  activity rating (responsiveness of the tumor to standard agents): +or +/−

## CC(=O)O[C@H]1C(=O)[C@@]2(C)[C@H]([C@H](OC(=O)c3ccccc3)[C@]3(O)C[C@H](OC(=O)[C@H](O)[C@@H](NC(=O)c4ccccc4)c4ccccc4)C(C)=C1C3(C)C)[C@]1(OC(C)=O)CO[C@@H]1C[C@@H]2O [taxol]
[2]
  activity rating (responsiveness of the tumor to standard agents): +or +/−
[1]
  activity rating (sensitivity of the tumor to standard agents): ++++ (>2.8)
